According to patent US20220111034A1, “VIRUS COMPOSITIONS” (priority 2019, published 2022):

Tests used:
σ1-α-SA complex = molecular target: T1, σ1-α-SA complex (Reovirus type 3, UniProt P03528); assay: FD-based AFM single-virus force spectroscopy on α-SA-coated model surfaces; format: binding; conditions: injection of 1 mM free glycan, FIG. 3b
T1 construct: made in house; host or cells: L929 cells (virus-infected)
T1 sequence (P03528 1-455): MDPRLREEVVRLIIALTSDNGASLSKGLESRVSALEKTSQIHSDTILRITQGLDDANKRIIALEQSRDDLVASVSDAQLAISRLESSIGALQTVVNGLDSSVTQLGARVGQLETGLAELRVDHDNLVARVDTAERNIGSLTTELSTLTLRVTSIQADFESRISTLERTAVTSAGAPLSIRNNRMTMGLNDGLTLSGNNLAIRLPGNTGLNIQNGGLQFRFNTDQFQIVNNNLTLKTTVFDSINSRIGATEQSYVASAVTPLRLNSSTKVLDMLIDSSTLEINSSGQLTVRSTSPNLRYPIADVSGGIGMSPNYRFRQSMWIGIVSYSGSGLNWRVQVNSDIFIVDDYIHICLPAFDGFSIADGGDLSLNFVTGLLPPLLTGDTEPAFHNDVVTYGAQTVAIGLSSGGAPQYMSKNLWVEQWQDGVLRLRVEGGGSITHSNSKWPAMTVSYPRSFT
Experimental: (§1) NHS-PEG27-acetal linkers were used to functionalize AFM tips as described (Gruber. Crosslinkers and Protocols for AFM Tip Functionalization. https://wwwjku.at/institut-fuer-biophysik/forschung/linked, 2018; Wildling et al. Linking of sensor molecules with amino groups to aminofunctionalized AFM tips. Bioconjug. Chem. 2011, vol. 22, 1239-1248). AFM tips (PFQNM-LC and MSCT probes, Bruker) were immersed in chloroform for 10 min, rinsed with ethanol, dried with a stream of filtered nitrogen, cleaned for 10 min using an ultraviolet radiation and ozone (UV-0) cleaner (Jetlight), and immersed overnight in an ethanolamine solution (3.3 g of ethanolamine hydrochloride in 6.6 mL of DMSO). The cantilevers were washed three times with DMSO, and two times with ethanol and dried with nitrogen. To ensure a low grafting density of the linker on the AFM tip, 1 mg of acetal-PEG27-NHS was diluted in 0.5 mL of chloroform with 30 μL of […] (Gruber, supra; Wildling et al., supra). Ethanolamine-coated cantilevers were immersed for 2 h in this solution, washed three times with chloroform, and dried with nitrogen. Cantilevers were then immersed for 10 min in 1% citric acid in milliQ water, washed three times with milliQ water, and dried with nitrogen. Virus solution (80 μL at ˜10^8 to 10^9 particles mL^−1) was pipetted onto the tips placed on Parafilm (Bemis NA) in a small plastic dish stored within an icebox. A freshly prepared solution of NaCNBH3 (2 μL at ˜6% wt. in 0.1 M NaOH(aq)) was gently mixed into the virus solution, and the cantilever chips were gently positioned with the cantilevers extending into the virus drop. The icebox was incubated at 4° C. for 1 h. Then, 5 μL of 1 M ethanolamine solution (pH 8) was gently mixed into the drop to quench the reaction. The icebox was incubated at 4° C. for an additional 10 min, and the cantilever chips were removed, washed three times in ice-cold PBS, and stored in individual wells of a multiwell dish containing 2 mL of ice-cold virus buffer (150 mM NaCl, 15 mM MgCl2, 10 mM Tris, pH adjusted to 7.4) per well until used in AFM experiments. […]

JAM-A = assay: FD-based AFM single-virus force spectroscopy on JAM-A-coated model surfaces; format: binding; conditions: for change in JAM-A-T3SA− binding or multivalent interactions: 1 mM glycan injected, FIG. 6a-c
Experimental: as §1, with “reaction.” for “reaction. The icebox was incubated at 4° C. for an additional 10 min, and the cantilever chips were removed, washed three times in ice-cold PBS, and stored in individual wells of a multiwell dish containing 2 mL of ice-cold virus buffer (150 mM NaCl, 15 mM MgCl2, 10 mM Tris, pH adjusted to 7.4) per well until used in AFM experiments.”
His6-tagged JAM-A (Bio-Connect Life Science) was immobilized using NTA-His6 binding chemistry, as described (Dupres et al. 2005, supra; Dufrêne. Life at the nanoscale: atomic force microscopy of live cells. Pan Stanford Publishing, 2011). […] The thickness was measured as described for sialic-acid-coated model surfaces.
AFM Nanoscope Multimode 8 (Bruker) was used (Nanoscope software v9.1) to conduct FD-based AFM. Virus-functionalized MSCT-D probes (with spring constants calculated using thermal tune, ranging from 0.024 to 0.043 N m^−1) (Butt & Jaschke. Calculation of thermal noise in atomic-force microscopy. Nanotechnol. 1995, vol. 6, 1-7) were used to record force curves from 5×5 μm arrays in the force-volume (contact) mode. […]

Mice = assay: Infection of mice by reovirus (Example 7); format: in vivo; conditions: co-administered with the virus

## CC(=O)N[C@H]1[C@H]([C@H](O)[C@H](O)CO)OC(O)(C(=O)O)C[C@@H]1O (stereo partly drawn) [Neu5Ac, N-acetylneuraminic acid]
σ1-α-SA complex
  competition with T3SA+ binding to SA: strongly competed
JAM-A; 1 mM free glycan, FIG. 16
  change in T3SA+ISVP-JAM-A multivalent binding behavior: does not induce any change
JAM-A
  change in JAM-A-T3SA− binding or multivalent interactions: does not induce any change
Mice
  effect on infectivity of T3SA+ in mice: significantly increase infectivity
  effect on infectivity of T3SA− in mice: do not affect infectivity

## CC(=O)N[C@H]1[C@H](O[C@H]2[C@@H](O)[C@@H](CO)O[C@@H](O[C@H]3[C@H](O)[C@@H](O)C(O)O[C@@H]3CO)[C@@H]2O)O[C@H](CO)[C@@H](O[C@@H]2O[C@H](CO)[C@H](O)[C@H](O)[C@H]2O)[C@@H]1O (mixture of isomers) [LNnT, lacto-N-neotetraose, reference compound]
σ1-α-SA complex
  competition with T3SA+ binding to SA: but not LNnT strongly competed
JAM-A; 1 mM glycan, FIG. 5d
  effect on the overall binding of T3SA+ to JAM-A: had no effect
Mice
  effect on infectivity of T3SA+ in mice: does not affect infectivity

## sialyl-lacto-N-tetraose a [LSTa]
σ1-α-SA complex
  competition with T3SA+ binding to SA: strongly competed
JAM-A
  change in JAM-A-T3SA− binding or multivalent interactions: does not induce any change
Mice
  effect on infectivity of T3SA+ in mice: significantly increase infectivity
  effect on infectivity of T3SA− in mice: do not affect infectivity
